Test results taken from patent US12410166B2, “Sulfonylamidine substituted compounds and their use as beta-lactamase inhibitors” (NINGXIA ACADEMY OF AGRICULTURE AND FORESTRY SCIENCES, priority 2021, dated 2025).
Structures can show the parent of a compound that is named as a salt. Where two headings read alike, the source gives them in different places.

Tests used:
Assay in all cases: MIC by broth microdilution (antibacterial and synergistic activity)
Type in all cases: cell-based
[1] = test system: E. coli 8739 (strain 2, CTX-M15); settings: Escherichia coli, read-out: Antibacterial activity, MIC, inhibitor Alone
Protocol: (§1) Compounds of the present invention alone, avibactam (AVI) alone, relebactam (REL) alone, meropenem (MER) alone, imipenem (IMI) alone, and as a combination of compounds of the present invention, or avibactam or relebactam with test antibiotic (meropenem or imipenem) was tested for antimicrobial activity by determining minimum inhibitory concentration (MIC, mg/L) using the broth microdilution method according to the guidelines of the Clinical Laboratories and Standards Institute (“Methods for Dilution Antimicrobial Susceptibility Tests for Bacterial that Grow Aerobically”, Approved standard, 7th ed., Clinical and Laboratories Standards Institute (CLSI) Document M7-A8, Wayne, Pa., USA, 2009). Meropenem or imipenem as a test antibiotic compound was dissolved in DMSO, and then diluted in microbial growth medium (Mueller-Hinton Broth II, cation adjusted) resulting in a final concentration range of 0.031-64 mg/L in serial two-fold dilution. In all cases the final DMSO concentration was less than 0.5%. Bacteria were added to 96-well microtitre plates containing the serial two-fold dilutions of the compounds; the final cell density was approximately 5×10^5 colony forming units/mL (CFU/mL). Plates were incubated at 37° C. for 18-24 hours and read visually. The MIC, i.e. the lowest concentration of the test compound that inhibited visible growth of the bacteria, was recorded. The same assay conditions were used when the compounds of present invention alone, avibactam or relebactam alone (as a control), and as a combination of the present invention each compound, or avibactam or relebactam with test meropenem or imipenem antibiotic compound was tested for minimum inhibitory concentration (MIC, mg/L). While test meropenem or imipenem was serially diluted as described above, a constant concentration of avibactam, or relebactam or the present invention each compound of 4 mg/L was used.
(§2) Bacterial strains that were used to evaluate the antimicrobial activity using the MIC determination included but were not limited to E. coli clinical isolate (strain 1, TEM-1), E. coli 8739 (strain 2, CTX-M15), K. pneumoniae clinical isolate (strain 3, SHV-1), K. pneumoniae 700603 (strain 4, KPC-3, TEM-1), E. cloacae clinical isolate (strain 5, P99), E. cloacae 700323 (strain 6, AmpC), A. baumannii clinical isolate (strain 7, OXA-23, OXA-40), A. baumannii 19606 (strain 8, OXA-24), P. aeruginosa clinical isolate (strain 9, KPC-2), P. aeruginosa 9027 (strain 10, AmpC).

[2] = test system: E. coli clinical isolate (strain 1, TEM-1); settings: Escherichia coli, read-out: Antibacterial activity, MIC, inhibitor Alone
Protocol: as §1, §2

[3] = test system: E. cloacae clinical isolate (strain 5, P99); settings: Enterobacter cloacae, read-out: Antibacterial activity, MIC, inhibitor Alone
Protocol: as §1, §2

[4] = test system: A. baumannii 19606 (strain 8, OXA-24); settings: Acinetobacter baumannii, read-out: Antibacterial activity, MIC, inhibitor Alone
Protocol: as §1, §2

[5] = test system: P. aeruginosa clinical isolate (strain 9, KPC-2); settings: Pseudomonas aeruginosa, read-out: Antibacterial activity, MIC, inhibitor Alone
Protocol: as §1, §2

[6] = test system: E. cloacae 700323 (strain 6, AmpC); settings: Enterobacter cloacae, read-out: Antibacterial activity, MIC, inhibitor Alone
Protocol: as §1, §2

[7] = test system: A. baumannii clinical isolate (strain 7, OXA-23, OXA-40); settings: Acinetobacter baumannii, read-out: Antibacterial activity, MIC, inhibitor Alone
Protocol: as §1, §2

[8] = test system: K. pneumoniae 700603 (strain 4, KPC-3, TEM-1); settings: Klebsiella pneumoniae, read-out: Antibacterial activity, MIC, inhibitor Alone
Protocol: as §1, §2

[9] = test system: P. aeruginosa 9027 (strain 10, AmpC); settings: Pseudomonas aeruginosa, read-out: Antibacterial activity, MIC, inhibitor Alone
Protocol: as §1, §2

[10] = test system: K. pneumoniae clinical isolate (strain 3, SHV-1); settings: Klebsiella pneumoniae, read-out: Antibacterial activity, MIC, inhibitor Alone
Protocol: as §1, §2

[11] = strain 1 (TEM-1), compound alone, no antibiotic
[12] = strain 5 (P99), compound alone, no antibiotic
[13] = strain 9 (KPC-2), compound alone, no antibiotic
[14] = strain 6 (AmpC), compound alone, no antibiotic
[15] = strain 7 (OXA-23/40), compound alone, no antibiotic
[16] = strain 4 (KPC-3, TEM-1), compound alone, no antibiotic
[17] = strain 10 (AmpC), compound alone, no antibiotic
[18] = strain 3 (SHV-1), compound alone, no antibiotic

Measured: MIC

N=C(NS(=O)(=O)c1ccccn1)[C@@H]1CC[C@@H]2CN1C(=O)N2OS(=O)(=O)O [Ex. 12, (2S,5R)-7-Oxo-2-(N-(pyridin-2-ylsulfonyl)carbamimidoyl)-1,6-diazabicyclo[3.2.1]octan-6-yl hydrogen sulfate]
> 64 µg/mL: [1] | [2]; [11] | [3]; [12] | [4] | [5]; [13] | [6]; [14] | [7]; [15] | [8]; [16] | [9]; [17] | [10]; [18]

N=C(NS(=O)(=O)c1cccnc1)[C@@H]1CC[C@@H]2CN1C(=O)N2OS(=O)(=O)[O-].[Na+] [Ex. 13, Sodium (2S,5R)-7-oxo-2-(N-(pyridin-3-ylsulfonyl)carbamimidoyl)-1,6-diazabicyclo[3.2.1]octan-6-yl sulfate]
> 64 µg/mL: [1] | [2]; [11] | [3]; [12] | [4] | [5]; [13] | [6]; [14] | [7]; [15] | [8]; [16] | [9]; [17] | [10]; [18]

N=C(NS(=O)(=O)C(F)(F)F)[C@@H]1CC[C@@H]2CN1C(=O)N2OS(=O)(=O)O [Ex. 14, (2S,5R)-7-oxo-2-(N-((trifluoromethyl)sulfonyl)carbamimidoyl)-1,6-diazabicyclo[3.2.1]octan-6-yl hydrogen sulfate]
> 64 µg/mL: [1] | [2]; [11] | [3]; [12] | [4] | [5]; [13] | [6]; [14] | [7]; [15] | [8]; [16] | [9]; [17] | [10]; [18]

N=C(NS(=O)(=O)N1CCC1)[C@@H]1CC[C@@H]2CN1C(=O)N2OS(=O)(=O)O [Ex. 15, (2S,5R)-2-(N-(azetidin-1-ylsulfonyl)carbamimidoyl)-7-oxo-1,6-diazabicyclo[3.2.1]octan-6-yl hydrogen sulfate]
> 64 µg/mL: [1] | [2] | [3] | [4] | [5] | [6] | [7] | [8] | [9] | [10]

N=C(NS(N)(=O)=O)[C@@H]1CC[C@@H]2CN1C(=O)N2OS(=O)(=O)O [Ex. 16, (2S,5R)-7-oxo-2-(N-Sulfamoylcarbamimidoyl)-1,6-diazabicyclo[3.2.1]octan-6-yl hydrogen sulfate]
> 64 µg/mL: [1] | [2]; [11] | [3]; [12] | [4] | [5]; [13] | [6]; [14] | [7]; [15] | [8]; [16] | [9]; [17] | [10]; [18]

CNS(=O)(=O)NC(=N)[C@@H]1CC[C@@H]2CN1C(=O)N2OS(=O)(=O)O [Ex. 17, (2S,5R)-2-(N—(N-Methylsulfamoyl)carbamimidoyl)-7-oxo-1,6-diazabicyclo[3.2.1]octan-6-yl hydrogen sulfate]
> 64 µg/mL: [1] | [2] | [3] | [4] | [5] | [6] | [7] | [8] | [9] | [10]

CCNS(=O)(=O)NC(=N)[C@@H]1CC[C@@H]2CN1C(=O)N2OS(=O)(=O)O [Ex. 18, (2S,5R)-2-(N—(N-Ethylsulfamoyl)carbamimidoyl)-7-oxo-1,6-diazabicyclo[3.2.1]octan-6-yl hydrogen sulfate]
> 64 µg/mL: [1] | [2]; [11] | [3]; [12] | [4] | [5]; [13] | [6]; [14] | [7]; [15] | [8]; [16] | [9]; [17] | [10]; [18]

Cn1ccnc1S(=O)(=O)NC(=N)[C@@H]1CC[C@@H]2CN1C(=O)N2OS(=O)(=O)O [Ex. 19, (2S,5R)-2-(N-((1-methyl-1H-imidazol-2-yl)sulfonyl)carbamimidoyl)-7-oxo-1,6-diazabicyclo[3.2.1]octan-6-yl hydrogen sulfate]
> 64 µg/mL: [1] | [2]; [11] | [3]; [12] | [4] | [5]; [13] | [6]; [14] | [7]; [15] | [8]; [16] | [9]; [17] | [10]; [18]

N=C(NS(=O)(=O)c1ccc(C(F)(F)F)cn1)[C@@H]1CC[C@@H]2CN1C(=O)N2OS(=O)(=O)O [Ex. 20, (2S,5R)-7-oxo-2-(N-((5-(trifluoromethyl)pyridin-2-yl)sulfonyl)carbamimidoyl)-1,6-diazabicyclo[3.2.1]octan-6-yl hydrogen sulfate]
> 64 µg/mL: [1] | [2]; [11] | [3]; [12] | [4] | [5]; [13] | [6]; [14] | [7]; [15] | [8]; [16] | [9]; [17] | [10]; [18]

COc1ccc(S(=O)(=O)NC(=N)[C@@H]2CC[C@@H]3CN2C(=O)N3OS(=O)(=O)O)cn1 [Ex. 21, (2S,5R)-2-(N-((6-methoxypyridin-3-yl)sulfonyl)carbamimidoyl)-7-oxo-1,6-diazabicyclo[3.2.1]octan-6-yl hydrogen sulfate]
> 64 µg/mL: [1] | [2]; [11] | [3]; [12] | [4] | [5]; [13] | [6]; [14] | [7]; [15] | [8]; [16] | [9]; [17] | [10]; [18]
